How the values were obtained:
E. coli YD626 (parent) = test: Colistin potentiation, broth microdilution, E. coli YD626 parent; format: cell-based
Text: (§1) Broth microdilution method for antibiotic potentiation.

Francisella philomiragia = settings: tested at 50 μM; cited from earlier work
F. novicida = settings: tested at 50 μM; cited from earlier work
[1] = system: K. pneumoniae 2210291 (parent); test: Colistin potentiation, broth microdilution, K. pneumoniae 2210291 parent; format: cell-based; settings: no adjuvant
Text: as §1

[2] = system: A. baumannii 17978 (parent); test: Colistin potentiation, broth microdilution, A. baumannii 17978 parent; format: cell-based; settings: no adjuvant
Text: as §1

K. pneumoniae B9 = test: Colistin potentiation, chromosomally colistin resistant K. pneumoniae B9; format: cell-based; settings: no adjuvant; K. pneumoniae B9
Text: as §1

K. pneumoniae C3 = test: Colistin potentiation, chromosomally colistin resistant K. pneumoniae C3; format: cell-based; settings: no adjuvant
Text: as §1

A. baumannii 3941 = test: Colistin potentiation, chromosomally colistin resistant A. baumannii 3941; format: cell-based; settings: no adjuvant
Text: as §1

A. baumannii 4106 = test: Colistin potentiation, chromosomally colistin resistant A. baumannii 4106; format: cell-based; settings: no adjuvant
Text: as §1

[3] = system: A. baumannii 4106 infection in G. mellonella larvae; test: Galleria mellonella model of A. baumannii infection; format: in vivo; settings: 50 mg/kg; 6×10^5 CFU A. baumannii 4106; day 4
Description: Galleria mellonella Assay. G. mellonella larvae (Speedy Worm, Alexandria, Minn.) were used within 10 days of shipment from the vendor. After reception of worms, larvae were kept in the dark at room temperature for at least 24 h. before infection. Larvae weighing between 200 to 300 mg were used in the survival assay. Using a 10 μL glass syringe (Hamilton, Reno, Nev.) fitted with a 30 G needle (Exel International, St. Petersburg, Fla.), a 5 μL solution of the desired compound(s) and concentration(s) were injected into the last left proleg. Colistin was dosed at 50 mg/kg dissolved in DI water, 2-AIs at 50 mg/kg dissolved in DMSO, tigecycline at 100 mg/kg dissolved in DMSO, and DMSO was injected for a negative control. For bacterial injections, 1 mL from an overnight culture of A. baumannii 4106 in Miller LB broth (Fisher Scientific U.S.) was subcultured into 9 mL Miller LB broth and incubated for an additional 3 h before use. The 10 mL solution was centrifuged and washed three times with phosphate buffer solution (PBS, Fisher Scientific U.S.) before diluting to 6×10^5 CFUs in PBS. Then, 2.5 h. after the first injection, a second 5 μL injection containing 6×10^5 CFUs of A. baumannii 4106 was injected into the second to last left proleg. Injected worms were left at room temperature in the dark while being assessed at 24 h intervals over 4 days. […] Experiment was repeated 3 times using 10 larvae per experimental group. No ethics approval was needed for G. mellonella.

E. coli YD626 +mcr-1 = test: Colistin potentiation, broth microdilution, E. coli YD626 +mcr-1; settings: no adjuvant
[4] = system: A. baumannii 17978 +mcr-1; test: Colistin potentiation, broth microdilution, A. baumannii 17978 +mcr-1; settings: no adjuvant
[5] = system: K. pneumoniae 2210291 +mcr-1; test: Colistin potentiation, broth microdilution, K. pneumoniae 2210291 +mcr-1; settings: no adjuvant

Molecule	fold reduction of colistin MIC (E. coli YD626 (parent); adjuvant at 50 μM, parent E. coli strain)	fold reduction in the colistin MIC (Francisella philomiragia)	fold reduction in the colistin MIC (F. novicida)	colistin MIC, colistin alone (E. coli YD626 (parent); no adjuvant, E. coli YD626 parent)	colistin MIC, colistin alone [1]	colistin MIC, colistin alone [2]	colistin MIC, colistin alone (K. pneumoniae B9)	colistin MIC, colistin alone (K. pneumoniae C3)	colistin MIC, colistin alone (A. baumannii 3941)	colistin MIC, colistin alone (A. baumannii 4106)	survival of inoculated worms after 4 days, monotherapy [3]	colistin MIC, colistin alone (E. coli YD626 +mcr-1)	colistin MIC, colistin alone [4]	colistin MIC, colistin alone [5]
CCCCc1ccc(C(=O)NCCc2c[nH]c3ccccc23)cc1 [Compound 1a]	16 fold	32 fold	two-fold											
colistin [reference compound]				1 µg/mL	1 µg/mL	2 µg/mL	512 µg/mL	512 µg/mL	512 µg/mL	1024 µg/mL	7%	8 µg/mL	16 µg/mL	16 µg/mL
